According to patent publication EP0640747B1, “Boiler system pH/phosphate program control method” (NALCO CHEMICAL COMPANY, priority 1993, dated 1995):

Test: thermal stability of inert fluorescent tracers under boiler conditions
Format: physicochemical
Conditions: for thermally stable (substantially inert) for time: at 285 °C (545 °F); for thermally stable (substantially inert) at pressures up to: for time periods commensurate with commercial boiler holding times; for thermally stable (substantially inert) at temperatures up to: temperature limit, also printed as 1004 °F
Excerpt: Among the substantially boiler-system-inert fluorescent compounds are the mono-, di- and trisulfonated naphthalenes, including their water-soluble salts, particularly the various naphthalene mono- and disulfonic acid isomers, which are a preferred inert tracer(s) for use in the present invention. The naphthalene mono- and disulfonic acid isomers are water-soluble, generally available commercially and easily detectable and quantifiable by known fluorescence analysis techniques. Preferred naphthalene mono- and disulfonic acid isomers are the water-soluble salts of naphthalene sulfonic acid ("NSA"), such as 2-NSA, and naphthalene disulfonic acid ("NDSA" or "NDA"), for instance 1,5-NDSA. Many of these inert tracer(s) (mono-, di- and trisulfonated naphthalenes and mixtures thereof) are extremely compatible with the environments of most boiler systems.

| thermally stable (substantially inert) for time | thermally stable (substantially inert) at pressures up to | thermally stable (substantially inert) at temperatures up to | Compound |
| --- | --- | --- | --- |
| at least 24 hours | about 1,500 psig | at least 540 °C | O=S(=O)(O)c1cccc2c(S(=O)(=O)O)cccc12 [1,5-NDSA, 1,5-naphthalene disulfonic acid] |
| at least 24 hours | about 1,500 psig | at least 540 °C | O=S(=O)(O)c1ccc2ccccc2c1 [2-NSA, 2-naphthalene sulfonic acid] |
